Measurements taken from patent publication US4611066A, “Bryostatins 4 to 8” (Arizona State University, priority 1984, dated 1986).
In brackets after ≈: the same amount, converted by molar mass.

Experiments:
[1] = test system: murine P388 lymphocytic leukemia (PS cell line); assay: inhibition of growth of PS tumor cells in culture (ED50); format: cell-based; conditions: for IC50: Mus musculus
From the text: (§1) The isolation and purification methods chosen can be monitored at each step by performing in vitro and/or in vivo antitumor tests as described by R. I. Geran, N. H. Greenberg, M. M. MacDonald, A. M. Schumacher and B. S. Abbot in Cancer Chemother. Rep. Part 3, Vol. 3 (2): 1-103 (1972); and by Schmidt, J. M.; Pettit, G. R. in Experimentia, 34: 659-660 (1978). Such tests include the determination of the concentration of active material rquired to inhibit the growth of tumor cells in culture, (e.g., the concentration required to inhibit growth by 50 percent or the ED50) and of the dose of active material required to prolong the life of mice bearing transplanted tumors.

P 388 (PS) mouse tumor = P 388 (PS) mouse tumor test, life extension in vivo
From the text: The dried methylene chloride extracts (derived from the shipping solution and from extraction of the chopped animals) were further separated by taking small portions and subjecting each to solvent partitioning beginning with methanol:water (9:1)/hexane (4 times). […] The aqueous mthanol layers were further diluted with water to a ratio of 8:2 and were extracted repeatedly with carbon tetrachloride (9 times). The carbon tetrachloride extracts were dried and assayed for antitumor activity.
as §1

SMILES: COC(=O)C=C1CC2/C=C/C(C)(C)C3(O)OC(C/C(=C\C(=O)OC)C3OC(C)=O)C[C@H]([C@@H](C)O)OC(=O)C[C@H](O)C[C@@H]3C[C@H](OC(=O)CC(C)C)C(C)(C)[C@](O)(C[C@H](C1)O2)O3 (some centres unmarked) [Bryostatin 5]
- IC50 ([1]; P388, PS cell line): 0.26 to 1.3 ng/mL (≈ 0.3 to 1.5 nM)
- in vivo life extension (P 388 (PS) mouse tumor; at 185 μg/kg): 88%

SMILES: CCCC(=O)OC1/C(=C/C(=O)OC)CC2C[C@H]([C@@H](C)O)OC(=O)C[C@H](O)C[C@@H]3C[C@H](OC(=O)CCC)C(C)(C)[C@](O)(C[C@@H]4CC(=CC(=O)OC)CC(/C=C/C(C)(C)C1(O)O2)O4)O3 (some centres unmarked) [Bryostatin 8]
- IC50 ([1]; murine P388 lymphocytic leukemia assay (PS cell line), unit inferred): 1.3 ng/mL (≈ 1.48 nM)

SMILES: CCCC(=O)O[C@H]1C[C@H]2C[C@@H](O)CC(=O)O[C@@H]([C@@H](C)O)C[C@@H]3C/C(=C\C(=O)OC)[C@H](OC(C)=O)[C@@](O)(O3)C(C)(C)/C=C/[C@H]3C/C(=C\C(=O)OC)C[C@@H](C[C@](O)(O2)C1(C)C)O3 [Bryostatin 6]
- ED50 ([1]; PS cell line): 3 ng/mL (≈ 3.52 nM)
- in vivo life extension (P 388 (PS) mouse tumor; at 185 μg/kg): 82%

SMILES: COC(=O)C=C1CC2/C=C/C(C)(C)C3(O)OC(C/C(=C\C(=O)OC)C3OC(C)=O)C[C@H]([C@@H](C)O)OC(=O)C[C@H](O)C[C@@H]3C[C@H](OC(C)=O)C(C)(C)[C@](O)(C[C@H](C1)O2)O3 (some centres unmarked) [Bryostatin 7]
- IC50 ([1]; P388, PS cell line): 0.026 ng/mL (≈ 0.0315 nM)
- in vivo life extension (P 388 (PS) mouse tumor; at 92 μg/kg): 77%

SMILES: CCCC(=O)OC1/C(=C/C(=O)OC)CC2C[C@H]([C@@H](C)O)OC(=O)C[C@H](O)C[C@@H]3C[C@H](OC(=O)CC(C)C)C(C)(C)[C@](O)(C[C@@H]4CC(=CC(=O)OC)CC(/C=C/C(C)(C)C1(O)O2)O4)O3 (some centres unmarked) [Bryostatin 4]
- increase in life extension (P 388 (PS) mouse tumor; at 46 μg/kg): 62%
